Measured values reported in PubChem BioAssay AID200 (DTP/NCI, 2004).
Values joined by “and” are separate entries in the source; they are usually repeats but may differ in a detail not shown here. Equal entries are not always repeated. Toxic doses and inconclusive results are not listed.

Test system: B6C3F1 mice, B16 melanoma ip, median survival T/C
Test: NCI In Vivo Anticancer Drug Screen. Data for tumor model B16 Melanoma (intraperitoneal) in B6C3F1 mice
Settings: endpoint: median survival time, higher = longer survival
Procedure: The antitumor activity of compounds was measured in mice bearing transplantable tumors. Survival or tumor size were measured and the results are expressed as the measurement made in the treated group (T) divided by the measurement made in the vehicle treated control group (C). The tumor model used in this assay is B16 Melanoma (intraperitoneal) in B6C3F1 mice

[1] = dose: 50.0 mg/kg/injection, schedule: Q01DX009 (ip), vehicle: suspension in saline
[2] = dose: 100.0 mg/kg/injection, schedule: Q01DX009 (ip), vehicle: suspension in saline
[3] = dose: 6.25 mg/kg/injection, schedule: Q01DX009 (ip), vehicle: saline + alcohol
[4] = dose: 1.56 mg/kg/injection, schedule: Q01DX009 (ip), vehicle: Klucel (hydroxypropylcellulose) (HPC)
[5] = dose: 3.12 mg/kg/injection, schedule: Q01DX009 (ip), vehicle: Klucel (hydroxypropylcellulose) (HPC)
[6] = dose: 6.25 mg/kg/injection, schedule: Q01DX009 (ip), vehicle: Klucel (hydroxypropylcellulose) (HPC)
[7] = dose: 12.5 mg/kg/injection, schedule: Q01DX009 (ip), vehicle: Klucel (hydroxypropylcellulose) (HPC)
[8] = dose: 25.0 mg/kg/injection, schedule: Q01DX009 (ip), vehicle: Klucel (hydroxypropylcellulose) (HPC)
[9] = dose: 50.0 mg/kg/injection, schedule: Q01DX009 (ip), vehicle: Klucel (hydroxypropylcellulose) (HPC)
[10] = dose: 6.25 mg/kg/injection, schedule: Q01DX009 (ip), vehicle: saline
[11] = dose: 12.5 mg/kg/injection, schedule: Q01DX009 (ip), vehicle: saline
[12] = dose: 25.0 mg/kg/injection, schedule: Q01DX009 (ip), vehicle: saline
[13] = dose: 100.0 mg/kg/injection, schedule: Q01DX009 (ip), vehicle: Klucel (hydroxypropylcellulose) (HPC)

## Cn1nnc2c(C(N)=O)ncn2c1=O
dose: 12.5 mg/kg/injection, schedule: Q01DX009 (ip), vehicle: suspension in saline
  T/C: 113 % of control
[1]
  T/C: 167 % of control
dose: 100.0 mg/kg/injection, schedule: Q01DX009 (ip), vehicle: saline
  T/C: 181 % of control
[2]
  T/C: 206 % of control

## O=C1N[C@H]2[C@H](O)[C@H](O)[C@@H](O)[C@H](O)[C@@H]2c2cc3c(c(O)c21)OCO3
dose: 1.5 mg/kg/injection, schedule: Q01DX009 (ip), vehicle: saline + alcohol
  T/C: 100 % of control
dose: 1.56 mg/kg/injection, schedule: Q01DX009 (ip), vehicle: saline + alcohol
  T/C: 108 % of control
dose: 3.0 mg/kg/injection, schedule: Q01DX009 (ip), vehicle: saline + alcohol
  T/C: 103 % of control
dose: 6.0 mg/kg/injection, schedule: Q01DX009 (ip), vehicle: saline + alcohol
  T/C: 114 % of control
[3]
  T/C: 110 % of control

## CN(C(=S)S(=O)(=O)C12CC3CC(CC(C3)C1)C2)c1ccccc1
[4]
  T/C: 104 % of control
[5]
  T/C: 98 % of control
[6]
  T/C: 104 % of control
[7]
  T/C: 101 % of control
[8]
  T/C: 114 % of control
[9]
  T/C: 104 % of control

## COc1cc(NCCCCCCCNC(C)C)c2nccc(C)c2c1
dose: 3.12 mg/kg/injection, schedule: Q01DX009 (ip), vehicle: saline
  T/C: 103 % of control
[10]
  T/C: 96 % of control
[11]
  T/C: 103 % of control
[12]
  T/C: 103 % of control

## Cc1ccc2c(c1)C1(C)OC(C=CC1=O)O2 (centres undefined)
[5]
  T/C: 104 % of control
[6]
  T/C: 115 % of control
[7]
  T/C: 104 % of control
[8]
  T/C: 112 % of control and 105 % of control

## COC1CC(C)C(OC)C2=CC(=O)C=C(NC(=O)/C(C)=C/C=C\C(C)C(OC(N)=O)/C(C)=C\C(C)C1OC)C2=O (centres undefined)
dose: 2.5 mg/kg/injection, schedule: Q01DX009 (ip), vehicle: saline + alcohol
  T/C: 176 % of control
dose: 5.0 mg/kg/injection, schedule: Q01DX009 (ip), vehicle: saline + alcohol
  T/C: 155 % of control
dose: 10.0 mg/kg/injection, schedule: Q01DX009 (ip), vehicle: saline + alcohol
  T/C: 174 % of control

## O=c1cc(-c2ccccc2)nc(N[N+](=O)[O-])[nH]1
dose: 11.0 mg/kg/injection, schedule: Q01DX009 (ip), vehicle: Klucel (hydroxypropylcellulose) (HPC)
  T/C: 91 % of control
dose: 22.0 mg/kg/injection, schedule: Q01DX009 (ip), vehicle: Klucel (hydroxypropylcellulose) (HPC)
  T/C: 100 % of control
dose: 44.0 mg/kg/injection, schedule: Q01DX009 (ip), vehicle: Klucel (hydroxypropylcellulose) (HPC)
  T/C: 105 % of control
dose: 88.0 mg/kg/injection, schedule: Q01DX009 (ip), vehicle: Klucel (hydroxypropylcellulose) (HPC)
  T/C: 88 % of control

## N[C@@H](Cc1c[nH]c2ccccc12)C(=O)Nc1nncs1
[1]
  T/C: 94 % of control
[2]
  T/C: 95 % of control
dose: 200.0 mg/kg/injection, schedule: Q01DX009 (ip), vehicle: suspension in saline
  T/C: 103 % of control
dose: 400.0 mg/kg/injection, schedule: Q01DX009 (ip), vehicle: suspension in saline
  T/C: 106 % of control
dose: 800.0 mg/kg/injection, schedule: Q01DX009 (ip), vehicle: suspension in saline
  T/C: 109 % of control

## CC(C)(C)OC(=O)NC(CC(=O)OCc1ccccc1)C(=O)ON1C(=O)CCC1=O (centres undefined)
[8]
  T/C: 93 % of control
[9]
  T/C: 91 % of control
[13]
  T/C: 95 % of control

## O=C(O)C1CC1.[Ag]
dose: 0.78 mg/kg/injection, schedule: Q01DX009 (ip), vehicle: water
  T/C: 99 % of control
dose: 1.56 mg/kg/injection, schedule: Q01DX009 (ip), vehicle: water
  T/C: 122 % of control
dose: 3.12 mg/kg/injection, schedule: Q01DX009 (ip), vehicle: water
  T/C: 100 % of control
dose: 6.25 mg/kg/injection, schedule: Q01DX009 (ip), vehicle: water
  T/C: 92 % of control

## c1cc2c(c(CC3CO3)c1CC1CO1)OCCOCCOCCOCCO2 (centres undefined)
[3]
  T/C: 102 % of control
dose: 12.5 mg/kg/injection, schedule: Q01DX009 (ip), vehicle: saline + alcohol
  T/C: 112 % of control
dose: 25.0 mg/kg/injection, schedule: Q01DX009 (ip), vehicle: saline + Tween-80 + alcohol
  T/C: 113 % of control
dose: 25.0 mg/kg/injection, schedule: Q01DX009 (ip), vehicle: saline + alcohol
  T/C: 112 % of control
dose: 50.0 mg/kg/injection, schedule: Q01DX009 (ip), vehicle: saline + Tween-80 + alcohol
  T/C: 113 % of control
dose: 50.0 mg/kg/injection, schedule: Q01DX009 (ip), vehicle: saline + alcohol
  T/C: 119 % of control and 108 % of control
dose: 100.0 mg/kg/injection, schedule: Q01DX009 (ip), vehicle: saline + Tween-80 + alcohol
  T/C: 122 % of control
dose: 100.0 mg/kg/injection, schedule: Q01DX009 (ip), vehicle: saline + alcohol
  T/C: 113 % of control and 123 % of control
dose: 200.0 mg/kg/injection, schedule: Q01DX009 (ip), vehicle: saline + alcohol
  T/C: 109 % of control

## CCCC(=O)OCC1OC(n2cnc3c(=S)nc(N)[nH]c32)C(OC(=O)CCC)C1OC(=O)CCC (centres undefined)
dose: 0.78 mg/kg/injection, schedule: Q01DX009 (ip), vehicle: Klucel (hydroxypropylcellulose) (HPC)
  T/C: 103 % of control
[4]
  T/C: 104 % of control
[5]
  T/C: 110 % of control
[6]
  T/C: 114 % of control

## C/C(=N\N=C(/[Se])N1CC2CCC(CC2)C1)c1ccccn1
dose: 0.75 mg/kg/injection, schedule: Q01DX009 (ip), vehicle: Klucel (hydroxypropylcellulose) (HPC)
  T/C: 112 % of control and 92 % of control and 108 % of control
dose: 1.5 mg/kg/injection, schedule: Q01DX009 (ip), vehicle: Klucel (hydroxypropylcellulose) (HPC)
  T/C: 111 % of control and 99 % of control
dose: 3.0 mg/kg/injection, schedule: Q01DX009 (ip), vehicle: Klucel (hydroxypropylcellulose) (HPC)
  T/C: 115 % of control and 100 % of control
dose: 6.0 mg/kg/injection, schedule: Q01DX009 (ip), vehicle: Klucel (hydroxypropylcellulose) (HPC)
  T/C: 120 % of control and 93 % of control and 100 % of control

## O=C(CCBr)NCCNC(=O)CCBr
dose: 43.7 mg/kg/injection, schedule: Q01DX009 (ip), vehicle: saline with Tween-80
  T/C: 96 % of control
dose: 87.5 mg/kg/injection, schedule: Q01DX009 (ip), vehicle: saline with Tween-80
  T/C: 100 % of control
dose: 175.0 mg/kg/injection, schedule: Q01DX009 (ip), vehicle: saline with Tween-80
  T/C: 98 % of control

## O=S1(=O)C=C(c2ccccc2)C(c2ccccc2)=C1
dose: 3.12 mg/kg/injection, schedule: Q01DX009 (ip), vehicle: saline with Tween-80
  T/C: 92 % of control and 98 % of control
dose: 6.25 mg/kg/injection, schedule: Q01DX009 (ip), vehicle: saline with Tween-80
  T/C: 95 % of control
dose: 12.5 mg/kg/injection, schedule: Q01DX009 (ip), vehicle: saline with Tween-80
  T/C: 113 % of control and 94 % of control
dose: 25.0 mg/kg/injection, schedule: Q01DX009 (ip), vehicle: saline with Tween-80
  T/C: 106 % of control
dose: 50.0 mg/kg/injection, schedule: Q01DX009 (ip), vehicle: saline with Tween-80
  T/C: 119 % of control

## Oc1ccccc1C=NCCC[N-]CCCN=Cc1ccccc1O.[Co]
dose: 6.25 mg/kg/injection, schedule: Q01DX008 (ip), vehicle: saline
  T/C: 97 % of control
[10]
  T/C: 101 % of control
dose: 12.5 mg/kg/injection, schedule: Q01DX008 (ip), vehicle: saline
  T/C: 107 % of control
[11]
  T/C: 107 % of control
dose: 25.0 mg/kg/injection, schedule: Q01DX008 (ip), vehicle: saline
  T/C: 96 % of control
[12]
  T/C: 113 % of control
dose: 50.0 mg/kg/injection, schedule: Q01DX008 (ip), vehicle: saline
  T/C: 86 % of control
dose: 50.0 mg/kg/injection, schedule: Q01DX009 (ip), vehicle: saline
  T/C: 105 % of control
dose: 100.0 mg/kg/injection, schedule: Q01DX008 (ip), vehicle: saline
  T/C: 95 % of control

## CCCC(NC(=O)OCc1ccccc1)C(=O)NC(C)C(=O)O (centres undefined)
[8]
  T/C: 101 % of control
[9]
  T/C: 104 % of control
[13]
  T/C: 102 % of control
